Data reported in patent publication US11369565B2, “Amino-pyrimidine skeletal muscle modulators” (Cytokinetics, Inc., priority 2010, dated 2022).

test system: rabbit skeletal myofibrils (approximately 90% fast fibers); test: Activation of fast skeletal myofibrils (PUMA coupled-enzyme ATPase assay at pCa25); format: biochemical; details: concentration at which the compound increased the enzymatic activity by 40%; calcium at pCa25; PM12 buffer pH 6.8
In short: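 Detergent-washed rabbit psoas myofibrils tested at calcium giving 25% of maximal rate (pCa25). ATPase activity tracked by pyruvate kinase/lactate dehydrogenase coupling, NADH oxidation read as absorbance at 340 nm, in PM12 buffer (12 mM Pipes, 2 mM MgCl2, 1 mM DTT, pH 6.8).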

SMILES | Mean AC1.4
NC(=O)c1cccc(-c2cnc(NC[C@]3(c4ncccc4F)C[C@H](F)C3)nc2)c1O [3-[2-({[3-fluoro-1-(3-fluoro(2-pyridyl))cyclobutyl]methyl)amino)pyrimidin-5-yl]-2-hydroxybenzamide] | A (A=<1 uM)
O=C(O)c1cccc(-c2cnc(NC[C@]3(c4ncccc4F)C[C@H](F)C3)nc2O)c1 [3-[2-({[3-fluoro-1-(3-fluoro(2-pyridyl))cyclobutyl]methyl}amino)-4-hydroxypyrimidin-5-yl] benzoic acid] | D (D=>20 uM)
NC(=O)c1cccc(-c2cnc(NC[C@]3(c4ncccc4F)C[C@H](F)C3)nc2O)c1 [3-[2-({[3-fluoro-1-(3-fluoro(2-pyridyl))cyclobutyl]methyl}amino)-4-hydroxypyrimidin-5-yl]benzamide] | B (B=1-10 uM)
COc1nc(NC[C@]2(c3ncccc3F)C[C@H](F)C2)ncc1-c1cccc(C(N)=O)c1 [3-[2-({[3-fluoro-1-(3-fluoro(2-pyridyl))cyclobutyl]methyl}amino)-4-methoxypyrimidin-5-yl]benzamide] | A (A=<1 uM)
Cc1nc(NC[C@]2(c3ncccc3F)C[C@H](F)C2)ncc1-c1cccc(C(N)=O)c1 [3-[2-({[3-fluoro-1-(3-fluoro(2-pyridyl))cyclobutyl]methyl}amino)-4-methylpyrimidin-5-yl]benzamide] | B (B=1-10 uM)
NC(=O)c1ccc(O)c(-c2cnc(NC[C@]3(c4ncccc4F)C[C@H](F)C3)nc2)c1 [3-[2-({[3-fluoro-1-(3-fluoro(2-pyridyl))cyclobutyl]methyl}amino)pyrimidin-5-yl]-4-hydroxybenzamide] | A (A=<1 uM)
O=C(O)c1ccc(O)c(-c2cnc(NC[C@]3(c4ncccc4F)C[C@H](F)C3)nc2)c1 [3-[2-({[3-fluoro-1-(3-fluoro(2-pyridyl))cyclobutyl]methyl}amino)pyrimidin-5-yl]-4-hydroxybenzoic acid] | A (A=<1 uM)
NC(=O)c1cccc(-c2cnc(NCC3(c4ncccc4F)CC(F)C3)nc2)c1 (stereo not shown) [3-[2-({[3-fluoro-1-(3-fluoro(2-pyridyl))cyclobutyl]methyl}amino)pyrimidin-5-yl]benzamide] | A (A=<1 uM)
Oc1ncccc1-c1cnc(NC[C@]2(c3ncccc3F)C[C@H](F)C2)nc1 [3-[2-({[3-fluoro-1-(3-fluoro(2-pyridyl))cyclobutyl]methyl}amino)pyrimidin-5-yl]pyridin-2-ol] | C (C=10-20 uM)
Cc1ccc(F)c([C@]2(CNc3ncc(-c4cccc(C(N)=O)c4)cn3)C[C@@H](F)C2)n1 [3-[2-({[3-fluoro-1-(3-fluoro-6-methyl(2-pyridyl))cyclobutyl]methyl}amino)pyrimidin-5-yl]benzamide] | A (A=<1 uM)
NC(=O)c1ccc(F)c(-c2cnc(NCC3(c4ncccc4Cl)CCC3)nc2)c1 [3-[2-({[(3-chloro(2-pyridyl))cyclobutyl]methyl}amino)pyrimidin-5-yl]-4-fluorobenzamide] | A (A=<1 uM)
N#Cc1ccc(F)c(-c2cnc(NCC3(c4ncccc4Cl)CCC3)nc2)c1 [3-[2-({[(3-chloro(2-pyridyl))cyclobutyl]methyl}amino)pyrimidin-5-yl]-4-fluorobenzenecarbonitrile] | A (A=<1 uM)
NC(=O)c1cccc(-c2cnc(NCC3(c4ncccc4Cl)CCC3)nc2)c1 [3-[2-({[(3-chloro-2-pyridyl)cyclobutyl]methyl}amino)pyrimidin-5-yl]benzamide] | A (A=<1 uM)
N#Cc1cccc(-c2cnc(NCC3(c4ncccc4Cl)CCC3)nc2)c1 [3-[2-({[(3-chloro-2-pyridyl)cyclobutyl]methyl}amino)pyrimidin-5-yl]benzenecarbonitrile] | A (A=<1 uM)
NC(=O)c1ccc(O)c(-c2cnc(NCC3(c4ncccc4F)CCC3)nc2)c1 [3-[2-({[(3-fluoro(2-pyridyl))cyclobutyl]methyl}amino)pyrimidin-5-yl]-4-hydroxybenzamide] | A (A=<1 uM)
NC(=O)c1cccc(-c2cnc(NCC3(c4ncccc4F)CCC3)nc2)c1 [3-[2-({[(3-fluoro-2-pyridyl)cyclobutyl]methyl}amino)pyrimidin-5-yl]benzamide] | A (A=<1 uM)
CC(C)(C)OC(=O)NCCC(=O)NCc1cnn(-c2cnc(NC(C)(C)c3ncccc3Cl)nc2)c1 [3-[(tert-butoxy)carbonylamino]-N-{[1-(2-{[1-(3-chloro(2-pyridyl))-isopropyl]amino}pyrimidin-5-yl)pyrazol-4-yl)]methyl}propanamide] | D (D=>20 uM)
Nc1ncc(-c2cnc(NC[C@]3(c4ncccc4F)C[C@H](F)C3)nc2)[nH]c1=O [3-amino-6-[2-({[3-fluoro-1-(3-fluoro(2-pyridyl))cyclobutyl]methyl}amino)pyrimidin-5-yl] hydropyrazin-2-one] | B (B=1-10 uM)
CC(C)(Nc1ncc(-n2cc(CNC(=O)CCN)cn2)cn1)c1ncccc1Cl [3-amino-N-{[1-(2-{[1-(3-chloro(2-pyridyl))-isopropyl]amino}pyrimidin-5-yl)pyrazol-4-yl]methyl}propanamide] | B (B=1-10 uM)
CC(C)(C)Nc1ncc(-c2cccc(C(N)=O)c2)cn1 [3-{2-[(tert-butyl)amino]pyrimidin-5-yl} benzamide] | D (D=>20 uM)

SMILES | Mean AC1.4
CC(C)(Nc1ncc(-c2csc(C(N)=O)n2)cn1)c1ncccc1Cl [4-(2-{[1-(3-chloro(2-pyridyl))-isopropyl]amino}pyrimidin-5-yl)-1,3-thiazole-2-carboxamide] | C (C=10-20 uM)
CC(C)(Nc1ncc(-c2ccnc(C(N)=O)c2)cn1)c1ncccc1Cl [4-(2-{[1-(3-chloro(2-pyridyl))-isopropyl]amino}pyrimidin-5-yl)pyridine-2-carboxamide] | B (B=1-10 uM)
CC(C)(Nc1ncc(-c2csc(C(N)=O)c2)cn1)c1ncccc1Cl [4-(2-{[1-(3-chloro(2-pyridyl))-isopropyl]amino}pyrimidin-5-yl)thiophene-2-carboxamide] | B (B=1-10 uM)
CC(C)(CNc1ncc(-c2ccc(C(N)=O)cc2)cn1)c1ccc(F)cc1 [4-(2-{[2-(4-fluorophenyl)-2-methylpropyl]amino}pyrimidin-5-yl)benzamide] | B (B=1-10 uM)
N#Cc1cc(-c2cnc(NC3(c4ncccc4F)CCC3)nc2)ccn1 [4-(2-{[(3-fluoro-2-pyridyl)cyclobutyl]amino}pyrimidin-5-yl)pyridine-2-carbonitrile] | D (D=>20 uM)
NC(=O)c1cc(-c2cnc(NC3(c4ncccc4F)CCC3)nc2)ccn1 [4-(2-{[(3-fluoro-2-pyridyl)cyclobutyl]amino}pyrimidin-5-yl)pyridine-2-carboxamide] | B (B=1-10 uM)
N#Cc1cc(-c2cnc(NC3(c4ccc(F)cc4)CCC3)nc2)ccn1 [4-(2-{[(4-fluorophenyl)cyclobutyl]amino}pyrimidin-5-yl)pyridine-2-carbonitrile] | C (C=10-20 uM)
NC(=O)c1cc(-c2cnc(NC3(c4ccc(F)cc4)CCC3)nc2)ccn1 [4-(2-{[(4-fluorophenyl)cyclobutyl]amino}pyrimidin-5-yl)pyridine-2-carboxamide] | B (B=1-10 uM)
Cc1nc(NC[C@]2(c3ncccc3F)C[C@H](F)C2)ncc1-c1ccc(C(N)=O)cc1 [4-[2-({[3-fluoro-1-(3-fluoro(2-pyridyl))cyclobutyl]methyl}amino)-4-methylpyrimidin-5-yl]benzamide] | D (D=>20 uM)
Cc1nc(NC[C@]2(c3ncccc3F)C[C@H](F)C2)ncc1-c1ccc(C#N)cc1 [4-[2-({[3-fluoro-1-(3-fluoro(2-pyridyl))cyclobutyl]methyl}amino)-4-methylpyrimidin-5-yl]benzenecarbonitrile] | D (D=>20 uM)
NC(=O)c1cc(-c2cnc(NCC3(c4ncccc4F)CCC3)nc2)ccn1 [4-[2-({[(3-fluoro-2-pyridyl)cyclobutyl]methyl}amino)pyrimidin-5-yl]pyridine-2-carboxamide] | B (B=1-10 uM)
NC(=O)c1ccc(F)cc1-c1cnc(NC[C@]2(c3ncccc3F)C[C@H](F)C2)nc1 [4-fluoro-2-[2-({[3-fluoro-1-(3-fluoro(2-pyridyl))cyclobutyl]methyl}amino)pyrimidin-5-yl]benzamide] | B (B=1-10 uM)
CC(C)(Nc1ncc(-c2cc(C(N)=O)ccc2F)cn1)c1ncccc1F [4-fluoro-3-(2-{[1-(3-fluoro(2-pyridyl))-isopropyl]amino}pyrimidin-5-yl)benzamide] | B (B=1-10 uM)
COc1cccnc1C(C)(C)Nc1ncc(-c2cc(C(N)=O)ccc2F)cn1 [4-fluoro-3-(2-{[1-(3-methoxy(2-pyridyl))-isopropyl]amino}pyrimidin-5-yl)benzamide] | C (C=10-20 uM)
COc1cccnc1C(C)(C)Nc1ncc(-c2cc(C#N)ccc2F)cn1 [4-fluoro-3-(2-{[1-(3-methoxy(2-pyridyl))-isopropyl]amino}pyrimidin-5-yl)benzenecarbonitrile] | D (D=>20 uM)
Cc1cccnc1C(C)(C)Nc1ncc(-c2cc(C(N)=O)ccc2F)cn1 [4-fluoro-3-(2-{[1-methyl-1-(3-methyl(2-pyridyl))ethyl]amino}pyrimidin-5-yl)benzamide] | B (B=1-10 uM)
CC(C)(CNc1ncc(-c2cc(C(N)=O)ccc2F)cn1)c1ncccc1F [4-fluoro-3-(2-{[2-(3-fluoro(2-pyridyl))-2-methylpropyl]amino}pyrimidin-5-yl)benzamide] | B (B=1-10 uM)
NC(=O)c1ccc(F)c(-c2cnc(NCC3(c4ccccn4)CCC3)nc2)c1 [4-fluoro-3-(2-{[(2-pyridylcyclobutyl]methyl]amino}pyrimidin-5-yl)benzamide] | A (A=<1 uM)
NC(=O)c1ccc(F)c(-c2cnc(NC3(c4ncccc4F)CCC3)nc2)c1 [4-fluoro-3-(2-{[(3-fluoro(2-pyridyl))cyclobutyl]amino}pyrimidin-5-yl)benzamide] | A (A=<1 uM)
NC(=O)c1ccc(F)c(-c2cnc(NC3(c4ccc(F)cc4)CCC3)nc2)c1 [4-fluoro-3-(2-{[(4-fluorophenyl)cyclobutyl]amino}pyrimidin-5-yl)benzamide] | A (A=<1 uM)
